Legend:
Human Cytosolic PLA2 = target: T1, Human Cytosolic PLA2 (Homo sapiens, UniProt P47712); test: Inhibition of Cytosolic Phospholipase A2 (in vitro, [14C]PC/DG sonicated liposomes); type: biochemical; conditions: 37° C., 15 minutes, pH 7.5, 1 mM calcium chloride
T1 sequence (P47712 1-749): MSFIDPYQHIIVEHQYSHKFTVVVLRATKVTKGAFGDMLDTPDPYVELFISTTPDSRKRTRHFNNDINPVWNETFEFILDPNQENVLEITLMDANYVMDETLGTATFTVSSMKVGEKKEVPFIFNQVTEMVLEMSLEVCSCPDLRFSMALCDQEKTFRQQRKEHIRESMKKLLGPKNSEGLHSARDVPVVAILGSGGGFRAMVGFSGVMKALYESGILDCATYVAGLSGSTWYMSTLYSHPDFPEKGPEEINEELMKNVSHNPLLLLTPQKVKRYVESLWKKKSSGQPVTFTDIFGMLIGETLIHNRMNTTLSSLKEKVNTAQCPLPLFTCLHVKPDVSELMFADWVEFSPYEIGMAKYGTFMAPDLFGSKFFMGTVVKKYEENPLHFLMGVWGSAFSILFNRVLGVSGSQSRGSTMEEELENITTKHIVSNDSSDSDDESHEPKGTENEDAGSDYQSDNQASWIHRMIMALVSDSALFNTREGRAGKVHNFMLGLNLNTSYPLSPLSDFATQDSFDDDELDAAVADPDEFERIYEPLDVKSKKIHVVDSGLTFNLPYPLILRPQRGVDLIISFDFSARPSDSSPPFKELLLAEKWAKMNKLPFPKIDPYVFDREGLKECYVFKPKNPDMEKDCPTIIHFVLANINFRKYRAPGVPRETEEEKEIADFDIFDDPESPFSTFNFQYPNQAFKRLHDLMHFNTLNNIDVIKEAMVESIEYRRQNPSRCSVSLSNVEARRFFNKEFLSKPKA
Method: The biological activity of the compounds of Formula I was evaluated employing an in vitro assay measuring the ability of these compounds to inhibit the activity of cytosolic phospholipase A2. The assay was performed essentially as described in R. Kramer, et al., Journal of Biological Chemistry, 266:5268-5272 (1991) with the exception that varying amounts of the compound of Formula I were added to the reaction mixture.
The substrate, sonicated liposomes containing 1-palmitoyl-2[^14 C ]arachidonoyl-sn-glycero-3-phosphocholine ([^14 C]PC, 55 mCi/mmole from NEN Research Products) and sn-1,2-dioleoylglycerol (DG, Avanti Polar Lipids, Birmingham, Ala.) at a molar ratio of 2:1, was prepared as follows. [^14 C]PC (20 nmol, 1×10^6 dpm, 50 μg/ml in toluene/ethanol) and DG (10 nmol, 100 μg/ml in chloroform) were dried under nitrogen. The lipids were dispersed in 1 ml of 150 mM sodium chloride, 50 mM HEPES, pH 7.5 (assay buffer) by sonication at 4° C. with a Microson™ probe-sonicator (Heat Systems Ultrasonics) for 4×15 seconds, with 45 second intervals. Bovine serum albumin (essentially fatty acid free, from a 100 mg/ml stock in water, Sigma) was added to a final concentration of 4 mg/ml. Samples to be assayed for cPLA2 activity were incubated with 50 μl liposomes (0.5 nmol [^14 C]PC, 50,000 dpm containing 0.25 nmol of DG) and varying amounts of the compound of Formula I, in a total volume of 0.2 ml of assay buffer containing 1 mM calcium chloride and 1 mM 2-mercaptoethanol. Incubations were carried out at 37° C. for 15 minutes and terminated by adding 2 ml of Dole's reagent (2-propanol/heptane/0.5 M sulfuric acid, 40:10:1 containing 10 μg/ml of stearic acid).
After mixing, 1.2 ml of heptane and 1 ml of water were added. The mixtures were briefly vortexed and the upper phase transferred to tubes containing 2 ml of heptane and 150 mg of Bio-Sil (Bio-Rad Laboratories) activated at 130° C. before use. The tubes were thoroughly vortexed and centrifuged (1000×g for 5 minutes). The supernatants were decanted into scintillation vials. After addition of 10 ml of a liquid scintillation cocktail (Ready Protein®, Beckman) radioactivity was counted using a Beckman liquid scintillation counter Model LS 7000. High radioactive counts correlate with enzymatic activity.
The first column provides the example number of the test inhibitor. The second column provides the concentration of the test compound (in micromolar quantities) which inhibits fifty percent of the activity of cytosolic phospholipase A2.

neuronal cells = conditions: cited from earlier work

| Compound | IC50 (Human Cytosolic PLA2) | direct toxicity (other research groups) (neuronal cells; Neurobiology of Aging 1992) | neurotoxicity (neuronal cells; in vitro and in vivo, B. A. Yankner 1989) |
| --- | --- | --- | --- |
| CCc1cc(-c2ccccc2)c(O)cc1OCCCCCC(C)(C)c1nn[nH]n1 [Example 4, 2-phenyl-4-ethyl-5-[[6-(2H-tetrazol-5-yl)-6-methylheptyl]oxy]phenol] | 39.4 µM |  |  |
| CCc1cc(C(C)=O)c(O)cc1OCCCCCC(C)(C)c1nn[nH]n1 [Example 10, 1-[5-ethyl-2-hydroxy-4-[[6-methyl-6-(1H-tetrazol-5-yl)heptyl]oxy]phenyl]ethanone] | 43 µM |  |  |
| CCc1cc(CC)c(OCCCCCC(C)(C)c2nn[nH]n2)cc1O [Example 11, 2,4-diethyl-5-[[6-methyl-6-(1H-tetrazol-5yl)heptyl]oxy]phenol] | 54 µM |  |  |
| CCCc1c(OCCCOc2cc(O)c(OCC)cc2CC)ccc2c1OC(C(=O)O)CC2 (centres unmarked) [Example 12, 3,4-dihydro-8-propyl-7-[3-(2-ethyl-5-hydroxy-4-ethoxy-phenoxy)propoxy]-2H-1-benzopyran-2-carboxylic acid] | 28 µM |  |  |
| CCCc1c(OCCCOc2cc(O)c(C(C)=O)cc2CC)ccc2c1OC(C(=O)O)CC2 (centres unmarked) [Example 13, 7-[3-(4-acetyl-2-ethyl-5-hydroxyphenoxy)propoxy]-3,4-dihydro-8-propyl-2H-1-benzopyran-2-carboxylic acid] | 13 µM |  |  |
| β-amyloid peptide: 4500 Dalton protein, major constituent of amyloid plaque cores; in its longest forms 42 or 43 amino acid residues |  | unable to consistently demonstrate direct toxicity | neurotoxic in vitro and in vivo |

Second part, led by results:

| IC50 (Human Cytosolic PLA2) | Compound | direct toxicity (other research groups) (neuronal cells; Neurobiology of Aging 1992) | neurotoxicity (neuronal cells; in vitro and in vivo, B. A. Yankner 1989) |
| --- | --- | --- | --- |
| 18 µM | CCc1cc(-c2ccc(F)cc2)c(O)cc1OCCCOc1ccccc1CCC(=O)NS(C)(=O)=O [Example 2, N-Methanesulfonyl-3-(2-(3-(2-ethyl-4-(4-fluorophenyl)-5-hydroxyphenoxy)propoxy)phenyl)propionamide] |  |  |
| 17 µM | CCc1cc(-c2ccc(F)cc2)c(O)cc1OCCCOc1ccccc1CCC(=O)NS(=O)(=O)c1ccccc1 [Example 3, N-Phenylsulfonyl-3-(2-(3-(2-ethyl-4-(4-fluorophenyl)-5-hydroxyphenoxy)propoxy)phenyl)propionamide] |  |  |
| 12 µM | CCCc1c(OCCCOc2cc(O)c(-c3ccccc3)cc2CC)cccc1OC(C)C(=O)O (centres unmarked) [Example 5, 2-[3-[3-[(5-Ethyl-2-hydroxy[1, 1'-biphenyl]-4-yl)oxy]propoxy]-2-propylphenoxy]propanoic acid] |  |  |
| 9 µM | CCCc1c(OCCCOc2cc(O)c(-c3ccc(F)cc3)cc2CC)ccc2c1OC(C(=O)O)CC2 (centres unmarked) [Example 6, 8-Propyl-7-[3-[4-(4-fluorophenyl)-2-ethyl-5-hydroxyphenoxy]propoxy]-3,4-dihydro-2H-1-benzopyran-2-carboxylic acid] |  |  |
| 12 µM | CCCc1c(OCCCOc2cc(O)c(-c3ccc(F)cc3)cc2CC)cccc1Oc1ccccc1C(=O)O [Example 8, 2-[2-Propyl-3-[3-[2-ethyl-4-(4-fluorophenyl)-5-hydroxyphenoxy]propoxy]phenoxy]benzoic acid] |  |  |
| 35 µM | CCc1cc(-c2ccc(F)cc2)c(O)cc1OCCCCOc1ccccc1CCC(=O)O [Example 9, 3-(2-(4-(2-Ethyl-4-(4-fluorophenyl)-5-hydroxyphenoxy)-5-butyloxy)phenyl)propionic acid] |  |  |
| 14 µM | CCCc1c(OCCCOc2cc(O)c(C(C)=O)cc2CC)cccc1OC(CC)C(=O)O (centres unmarked) [Example 14, 2-[3-[3-(4-acetyl-2-ethyl-5-hydroxyphenoxy)-propoxy)-2-propylphenoxy]butanoic acid] |  |  |

From patent publication US5563164A, “Phospholipase A2 inhibitors” (Eli Lilly and Company, priority 1995, dated 1996)
